≈ marks a conversion by molar mass, not a printed value.
Columns and labels:
Assay type in all cases: cell-based, Staphylococcus aureus
Staph aureus 1146 [1] = test: MIC in Mueller-Hinton Broth with 50% pooled inactivated human serum, Assay 1, Table 12; settings: for MIC: Staphylococcus aureus, 1146, Staph aureus 1146, Assay 1, 50% human serum, read-out: MIC, column C; for MIC, column C: Staph aureus 1146, Assay 1, 50% human serum
Summary of the method: (§1)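 Broth microdilution in microtiter trays per CLSI M7-A7, interpreted per M100-S16; MIC (μg/ml) is the lowest concentration preventing macroscopically visible growth. Compounds were dissolved in DMSO at 10 mg/ml. Serum-containing runs used Mueller-Hinton Broth with 50% pooled inactivated human serum; repeated runs are reported as geometric means.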

Staph aureus 2811 = test: MIC, microtiter broth dilution (CLSI M7-A7), Assay 1, Table 12 column D, no serum; settings: for MIC: Staphylococcus aureus, 2811, Staph aureus 2811, Assay 1, no serum; for MIC, column D: Staph aureus 2811, Assay 1, no serum
Summary of the method: as §1

Staph aureus 2812 = test: MIC, microtiter broth dilution (CLSI M7-A7), Assay 1, Table 12 column E, no serum; settings: for MIC: Staphylococcus aureus, 2812, Staph aureus 2812, Assay 1, no serum; for MIC, column E: Staph aureus 2812, Assay 1, no serum
Summary of the method: as §1

Staph aureus 1095 MRSA = test: MIC, microtiter broth dilution (CLSI M7-A7), Assay 1, Table 12 column A, no serum; settings: Assay 1, no serum; for MIC: Staphylococcus aureus, MRSA
Summary of the method: as §1

Staph aureus 1146 [2] = test: MIC, microtiter broth dilution (CLSI M7-A7), Assay 1, Table 12 column B, no serum; settings: for MIC: Staphylococcus aureus, 1146, Staph aureus 1146, Assay 1, no serum; for MIC, column B: Staph aureus 1146, Assay 1, no serum
Summary of the method: as §1

COc1ccc2nccc(CCCC3(C(=O)O)CCN(C4CC(c5ccccc5)C4)CC3)c2c1 (centres unmarked) [Example 93, 4-[3-(6-methoxyquinolin-4-yl)propyl]-1-(3-phenylcyclobutyl)piperidine-4-carboxylic acid]
MIC (Staph aureus 1146 [1]): > 64 µg/mL | MIC (Staph aureus 2811): 2 µg/mL (≈ 4.36 µM) | MIC (Staph aureus 2812): 1 µg/mL (≈ 2.18 µM) | MIC (Staph aureus 1095 MRSA): 2 µg/mL (≈ 4.36 µM) | MIC (Staph aureus 1146 [2]): 2 µg/mL (≈ 4.36 µM)

COc1ccc2nccc(C(O)CC[C@@H]3CCN(C4CC(O)(c5ccccc5)C4)C[C@@H]3C(=O)O)c2c1 (stereo partly drawn) [Example 94, (3R,4R)-4-[3-hydroxy-3-(6-methoxyquinolin-4-yl)propyl]-1-(3-hydroxy-3-phenylcyclobutyl)piperidine-3-carboxcylic acid]
MIC, column C (Staph aureus 1146 [1]): >64 µg/mL | MIC, column D (Staph aureus 2811): >64 µg/mL | MIC, column E (Staph aureus 2812): >64 µg/mL | MIC, column A (Staph aureus 1095 MRSA): >64 µg/mL | MIC, column B (Staph aureus 1146 [2]): 32 µg/mL (≈ 65.2 µM)

COc1ccc2nccc(C(O)CC[C@@H]3CCN(C4CCC(c5ccc(Cl)cc5)C4)C[C@@H]3C(=O)O)c2c1 (stereo partly drawn) [Example 97, (3R,4R)-1-[3-(4-chlorophenyl)cyclopentyl]-4-[3-hydroxy-3-(6-methoxyquinolin-4-yl)propyl]piperidine-3-carboxylic acid]
MIC (Staph aureus 1146 [1]): > 64 µg/mL | MIC (Staph aureus 2811): 8 µg/mL (≈ 15.3 µM) | MIC (Staph aureus 2812): 8 µg/mL (≈ 15.3 µM) | MIC (Staph aureus 1095 MRSA): 32 µg/mL (≈ 61.2 µM) | MIC (Staph aureus 1146 [2]): 2 µg/mL (≈ 3.82 µM)

COc1ccc2ncc(F)c(CCCC3(C(=O)O)CCN(C4CC(c5nc(C)no5)C4)CC3)c2c1 (centres unmarked) [Example 98, 4-[3-(3-fluoro-6-methoxyquinolin-4-yl)propyl]-1-[3-(3-methyl-1,2,4-oxadiazol-5-yl)cyclobutyl]piperidine-4-carboxylic acid]
MIC (Staph aureus 1146 [1]): 64 µg/mL (≈ 133 µM) | MIC (Staph aureus 2811): 2 µg/mL (≈ 4.14 µM) | MIC (Staph aureus 2812): 4 µg/mL (≈ 8.29 µM) | MIC (Staph aureus 1095 MRSA): 4 µg/mL (≈ 8.29 µM) | MIC (Staph aureus 1146 [2]): 2 µg/mL (≈ 4.14 µM)

COC(=O)[C@H]1CN(C2CC(c3nnc(C)o3)C2)CC[C@H]1CCC(O)c1ccnc2ccc(OC)cc12 (stereo partly drawn) [Example 99, methyl (3R,4R)-4-[3-hydroxy-3-(6-methoxyquinolin-4-yl)propyl]-1-[3-(5-methyl-1,3,4-oxadiazol-2-yl)cyclobutyl]piperidine-3-carboxylate]
MIC (Staph aureus 1146 [1]): > 64 µg/mL | MIC (Staph aureus 2811): 64 µg/mL (≈ 129 µM) | MIC (Staph aureus 2812): > 64 µg/mL | MIC (Staph aureus 1095 MRSA): 64 µg/mL (≈ 129 µM) | MIC (Staph aureus 1146 [2]): 16 µg/mL (≈ 32.3 µM)

COc1ccc2ncc(Cl)c(CCNC3(C(=O)O)CCN(C4CC(c5ccccc5)C4)CC3)c2c1 (centres unmarked) [Example 100, 4-{[2-(3-chloro-6-methoxyquinolin-4-yl)ethyl]amino}-1-(3-phenylcyclobutyl)piperidine-4-carboxylic acid]
MIC (Staph aureus 1146 [1]): > 64 µg/mL | MIC (Staph aureus 2811): 0.25 µg/mL (≈ 0.506 µM) | MIC (Staph aureus 2812): 0.5 µg/mL (≈ 1.01 µM) | MIC (Staph aureus 1095 MRSA): 0.5 µg/mL (≈ 1.01 µM) | MIC (Staph aureus 1146 [2]): 0.5 µg/mL (≈ 1.01 µM)

COc1ccc2ncc(Cl)c(CCNC3CCN(C4CC(c5ccccc5)C4)C(C(=O)O)C3)c2c1 (centres unmarked) [Example 101, (2,4)-4-{[2-(3-chloro-6-methoxyquinolin-4-yl)ethyl]amino}-1-(3-phenylcyclobutyl)piperidine-2-carboxylic acid]
MIC, column C (Staph aureus 1146 [1]): 2 µg/mL (≈ 4.05 µM) | MIC, column D (Staph aureus 2811): <=.0625 μg/ml | MIC, column E (Staph aureus 2812): <=.0625 μg/ml | MIC, column A (Staph aureus 1095 MRSA): 0.125 µg/mL (≈ 0.253 µM) | MIC, column B (Staph aureus 1146 [2]): 0.125 µg/mL (≈ 0.253 µM)

COc1ccc2nccc(C(O)CC[C@@H]3CCN(C4CC(c5nc(C)no5)C4)C[C@@H]3C(=O)O)c2c1 (stereo partly drawn) [Example 102, (3R,4R)-4-[3-hydroxy-3-(6-methoxyquinolin-4-yl)propyl]-1-[3-(3-methyl-1,2,4-oxadiazol-5-yl)cyclobutyl]piperidine-3-carboxylic acid]
MIC (Staph aureus 1146 [1]): 64 µg/mL (≈ 133 µM) | MIC (Staph aureus 2811): 8 µg/mL (≈ 16.6 µM) | MIC (Staph aureus 2812): 16 µg/mL (≈ 33.3 µM) | MIC (Staph aureus 1095 MRSA): 16 µg/mL (≈ 33.3 µM) | MIC (Staph aureus 1146 [2]): 16 µg/mL (≈ 33.3 µM)

COc1ccc2nccc(C(O)CC[C@@H]3CCN(C4CC(Cc5ccccc5)C4)C[C@@H]3C(=O)O)c2c1 (stereo partly drawn) [Example 103, (3R,4R)-1-(3-benzylcyclobutyl)-4-[3-hydroxy-3-(6-methoxyquinolin-4-yl)propyl]piperidine-3-carboxylic acid]
MIC (Staph aureus 1146 [1]): 4 µg/mL (≈ 8.19 µM) | MIC (Staph aureus 2811): 0.25 µg/mL (≈ 0.512 µM) | MIC (Staph aureus 2812): 0.25 µg/mL (≈ 0.512 µM) | MIC (Staph aureus 1095 MRSA): 0.5 µg/mL (≈ 1.02 µM) | MIC (Staph aureus 1146 [2]): 0.25 µg/mL (≈ 0.512 µM)

COc1ccc2nccc(C(O)CC[C@@H]3CCN(C4CC(Oc5ccccn5)C4)C[C@@H]3C(=O)O)c2c1 (stereo partly drawn) [Example 104, (3R,4R)-4-[3-hydroxy-3-(6-methoxyquinolin-4-yl)propyl]-1-[3-(pyridin-2-yloxy)cyclobutyl]piperidine-3-carboxylic acid]
MIC (Staph aureus 1146 [1]): > 64 µg/mL | MIC (Staph aureus 2811): > 64 µg/mL | MIC (Staph aureus 2812): > 64 µg/mL | MIC (Staph aureus 1095 MRSA): > 64 µg/mL | MIC (Staph aureus 1146 [2]): > 64 µg/mL

COC(=O)[C@H]1CN(C2CC(c3cc(C)no3)C2)CC[C@H]1CCC(O)c1ccnc2ccc(OC)cc12 (stereo partly drawn) [Example 105, methyl (3R,4R)-4-[3-hydroxy-3-(6-methoxyquinolin-4-yl)propyl]-1-[3-(3-methylisoxazol-5-yl)cyclobutyl]piperidine-3-carboxylate]
MIC (Staph aureus 1146 [1]): > 64 µg/mL | MIC (Staph aureus 2811): 2 µg/mL (≈ 4.05 µM) | MIC (Staph aureus 2812): 2 µg/mL (≈ 4.05 µM) | MIC (Staph aureus 1095 MRSA): 1 µg/mL (≈ 2.03 µM) | MIC (Staph aureus 1146 [2]): 2 µg/mL (≈ 4.05 µM)

COc1ccc2ncc(F)c(CCCC3(C(=O)O)CCN(C4CC(c5ccccc5)C4)CC3)c2n1 (centres unmarked) [Example 106, 4-(3-(3-fluoro-6-methoxy-1,5-naphthyridin-4-yl)propyl)-1-(3-phenylcyclobutyl)piperidine-4-carboxylic acid]
MIC (Staph aureus 1146 [1]): 32 µg/mL (≈ 67 µM) | MIC (Staph aureus 2811): ≤ 0.0625 µg/mL | MIC (Staph aureus 2812): ≤ 0.0625 µg/mL | MIC (Staph aureus 1095 MRSA): ≤ 0.0625 µg/mL | MIC (Staph aureus 1146 [2]): ≤ 0.0625 µg/mL

COc1ccc2nccc(CCCC3(C(=O)O)CCN(CC4CC4c4ccccc4)CC3)c2c1 (centres unmarked) [Example 107, 4-[3-(6-methoxyquinolin-4-yl)propyl]-1-{[(1,2)-2-phenylcyclopropyl]methyl}piperidine-4-carboxylic acid]
MIC, column C (Staph aureus 1146 [1]): >64 µg/mL | MIC, column D (Staph aureus 2811): 64 µg/mL (≈ 140 µM) | MIC, column E (Staph aureus 2812): 16 µg/mL (≈ 34.9 µM) | MIC, column A (Staph aureus 1095 MRSA): 64 µg/mL (≈ 140 µM) | MIC, column B (Staph aureus 1146 [2]): 64 µg/mL (≈ 140 µM)

COc1ccc2ncc(Cl)c(CCCC3(C(=O)O)CCN(C4CC(c5ccccc5)C4)CC3)c2c1 (centres unmarked) [Example 108, 4-[3-(3-chloro-6-methoxyquinolin-4-yl)propyl]-1-(3-phenylcyclobutyl)piperidine-4-carboxylic acid]
MIC (Staph aureus 1146 [1]): 64 µg/mL (≈ 130 µM) | MIC (Staph aureus 2811): ≤ 0.0625 µg/mL | MIC (Staph aureus 2812): ≤ 0.0625 µg/mL | MIC (Staph aureus 1095 MRSA): ≤ 0.0625 µg/mL | MIC (Staph aureus 1146 [2]): ≤ 0.0625 µg/mL

COc1ccc2ncc(Cl)c(CCCC3(C(=O)O)CCN(C4CC(c5ccccc5)C4)CC3O)c2c1 (centres unmarked) [Example 109, 4-[3-(3-chloro-6-methoxyquinolin-4-yl)propyl]-3-hydroxy-1-(3-phenylcyclobutyl)piperidine-4-carboxylic acid]
MIC (Staph aureus 1146 [1]): > 64 µg/mL | MIC (Staph aureus 2811): 0.25 µg/mL (≈ 0.491 µM) | MIC (Staph aureus 2812): 1 µg/mL (≈ 1.96 µM) | MIC (Staph aureus 1095 MRSA): 1 µg/mL (≈ 1.96 µM) | MIC (Staph aureus 1146 [2]): 0.5 µg/mL (≈ 0.982 µM)

COc1ccc2nccc(C(O)CC[C@@H]3CCN(C4CC(c5nnc(C)o5)C4)C[C@@H]3C(=O)O)c2c1 (stereo partly drawn) [Example 110, (3R,4R)-4-[3-hydroxy-3-(6-methoxyquinolin-4-yl)propyl]-1-[3-(5-methyl-1,3,4-oxadiazol-2-yl)cyclobutyl]piperidine-3-carboxylic acid]
MIC (Staph aureus 1146 [1]): > 64 µg/mL | MIC (Staph aureus 2811): > 64 µg/mL | MIC (Staph aureus 2812): > 64 µg/mL | MIC (Staph aureus 1095 MRSA): > 64 µg/mL | MIC (Staph aureus 1146 [2]): 32 µg/mL (≈ 66.6 µM)

COc1ccc2ncnc(CCCC3(C(=O)O)CCN(C4CC(c5ccccc5)C4)CC3)c2c1 (centres unmarked) [Example 111, 4-[3-(6-methoxyquinazolin-4-yl)propyl]-1-(3-phenylcyclobutyl)piperidine-4-carboxylic acid]
MIC (Staph aureus 1146 [1]): > 64 µg/mL | MIC (Staph aureus 2811): 1 µg/mL (≈ 2.18 µM) | MIC (Staph aureus 2812): 1 µg/mL (≈ 2.18 µM) | MIC (Staph aureus 1095 MRSA): 4 µg/mL (≈ 8.7 µM) | MIC (Staph aureus 1146 [2]): 2 µg/mL (≈ 4.35 µM)

COc1ccc2nccc(C(O)CC[C@@H]3CCN(C4CC(c5cc(C)no5)C4)C[C@@H]3C(=O)O)c2c1 (stereo partly drawn) [Example 115, (3R,4R)-4-[3-hydroxy-3-(6-methoxyquinolin-4-yl)propyl]-1-[3-(3-methylisoxazol-5-yl)cyclobutyl]piperidine-3-carboxylic acid]
MIC (Staph aureus 1146 [1]): 64 µg/mL (≈ 133 µM) | MIC (Staph aureus 2811): 8 µg/mL (≈ 16.7 µM) | MIC (Staph aureus 2812): 16 µg/mL (≈ 33.4 µM) | MIC (Staph aureus 1095 MRSA): 32 µg/mL (≈ 66.7 µM) | MIC (Staph aureus 1146 [2]): 8 µg/mL (≈ 16.7 µM)

COc1ccc2ccnc(CCCC3(C(=O)O)CCN(C4CC(c5ccccc5)C4)CC3)c2c1 (centres unmarked) [Example 121, 4-[3-(7-methoxyisoquinolin-1-yl)propyl]-1-(3-phenylcyclobutyl)piperidine-4-carboxylic acid]
MIC (Staph aureus 1146 [1]): > 64 µg/mL | MIC (Staph aureus 2811): 1 µg/mL (≈ 2.18 µM) | MIC (Staph aureus 2812): 1 µg/mL (≈ 2.18 µM) | MIC (Staph aureus 1095 MRSA): 2 µg/mL (≈ 4.36 µM) | MIC (Staph aureus 1146 [2]): 1 µg/mL (≈ 2.18 µM)

— US20080280879A1, “SUBSTITUTED HETEROCYCLIC DERIVATIVES AND THEIR PHARMACEUTICAL USE AND COMPOSITIONS” (priority 2007, published 2008)
